Test results published in PMC7305236, “The atypical chemokine receptor ACKR3/CXCR7 is a broad-spectrum scavenger for opioid peptides” (Nature Communications, 2020).
Read-outs that look alike come from different tables or passages of the source.

Key:
Set-up in all cases: dose or concentration left out as unconfirmed
[1] = molecular target: T1, CCR1 (Homo sapiens, UniProt P32246); assay: Figure S2a opioid peptide screen on chemokine receptors; assay type: cell-based
T1 construct: expressed in transfected cells
T1 sequence (P32246 1-355): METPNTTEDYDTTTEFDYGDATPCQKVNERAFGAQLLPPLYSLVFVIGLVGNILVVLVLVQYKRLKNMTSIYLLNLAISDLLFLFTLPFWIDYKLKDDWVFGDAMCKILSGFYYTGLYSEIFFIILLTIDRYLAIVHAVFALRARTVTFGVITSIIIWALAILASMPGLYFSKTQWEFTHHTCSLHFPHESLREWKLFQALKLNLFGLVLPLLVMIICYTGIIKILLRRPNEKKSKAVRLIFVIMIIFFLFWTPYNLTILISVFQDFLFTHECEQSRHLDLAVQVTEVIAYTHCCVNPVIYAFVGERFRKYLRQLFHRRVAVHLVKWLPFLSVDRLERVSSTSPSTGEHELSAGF

[2] = molecular target: T2, ACKR4 (Homo sapiens, UniProt Q9NPB9); assay: as above; details: read-out: ACKR4 activity, ctrl+ = 100, Figure S2a
T2 sequence (Q9NPB9 1-350): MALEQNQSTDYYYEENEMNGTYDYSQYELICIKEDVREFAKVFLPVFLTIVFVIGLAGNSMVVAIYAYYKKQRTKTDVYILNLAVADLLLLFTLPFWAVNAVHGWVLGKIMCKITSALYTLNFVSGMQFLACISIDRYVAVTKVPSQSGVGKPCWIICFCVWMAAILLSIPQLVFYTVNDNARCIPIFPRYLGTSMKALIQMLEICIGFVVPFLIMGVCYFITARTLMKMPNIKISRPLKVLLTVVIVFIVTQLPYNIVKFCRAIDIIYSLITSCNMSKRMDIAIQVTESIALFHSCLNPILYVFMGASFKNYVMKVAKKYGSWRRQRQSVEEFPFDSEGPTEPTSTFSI

[3] = molecular target: T3, CXCR5 (Homo sapiens, UniProt P32302); assay: as above; assay type: cell-based
T3 construct: expressed in transfected cells
T3 sequence (P32302 1-372): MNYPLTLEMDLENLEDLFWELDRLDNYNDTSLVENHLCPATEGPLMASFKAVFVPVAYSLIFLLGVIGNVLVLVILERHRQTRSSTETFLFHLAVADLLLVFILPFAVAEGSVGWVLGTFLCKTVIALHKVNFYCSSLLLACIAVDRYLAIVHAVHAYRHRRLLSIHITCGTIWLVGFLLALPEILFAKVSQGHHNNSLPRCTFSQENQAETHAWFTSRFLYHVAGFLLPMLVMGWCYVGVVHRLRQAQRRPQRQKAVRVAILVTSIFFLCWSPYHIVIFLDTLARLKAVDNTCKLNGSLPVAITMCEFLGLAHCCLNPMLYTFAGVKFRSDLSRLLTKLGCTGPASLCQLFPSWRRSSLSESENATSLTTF

[4] = molecular target: CCR8 (Homo sapiens, UniProt P51685); assay: as above; details: read-out: CCR8 activity, ctrl+ = 100, Figure S2a
[5] = molecular target: T4, CXCR4 (Homo sapiens, UniProt P61073); assay: cell-based
T4 construct: expressed in transfected cells; host or cells: U87, transient cotransfection of pNBe vectors

[6] = molecular target: T5, CCR5 (Homo sapiens, UniProt P51681); assay: Figure S2a opioid peptide screen on chemokine receptors; assay type: cell-based
T5 construct: expressed in transfected cells

[7] = molecular target: T6, CXCR3B (Homo sapiens, UniProt P49682); assay: as above; assay type: cell-based
T6 construct: expressed in transfected cells; host or cells: U87 cells
T6 sequence (P49682 1-415 isoform P49682-2): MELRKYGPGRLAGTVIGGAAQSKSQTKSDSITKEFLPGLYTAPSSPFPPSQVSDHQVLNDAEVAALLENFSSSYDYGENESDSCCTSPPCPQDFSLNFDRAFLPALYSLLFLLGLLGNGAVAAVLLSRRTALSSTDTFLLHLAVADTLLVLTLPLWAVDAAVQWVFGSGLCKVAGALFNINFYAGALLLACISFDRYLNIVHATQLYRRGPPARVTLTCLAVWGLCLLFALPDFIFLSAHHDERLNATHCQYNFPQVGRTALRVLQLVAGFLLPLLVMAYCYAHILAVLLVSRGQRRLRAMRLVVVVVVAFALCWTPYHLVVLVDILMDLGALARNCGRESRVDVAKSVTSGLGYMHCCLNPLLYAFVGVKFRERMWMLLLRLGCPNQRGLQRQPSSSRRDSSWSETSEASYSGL

[8] = molecular target: T7, CXCR2 (Homo sapiens, UniProt P25025); assay: as above; assay type: cell-based
T7 construct: expressed in transfected cells
T7 sequence (P25025 1-360): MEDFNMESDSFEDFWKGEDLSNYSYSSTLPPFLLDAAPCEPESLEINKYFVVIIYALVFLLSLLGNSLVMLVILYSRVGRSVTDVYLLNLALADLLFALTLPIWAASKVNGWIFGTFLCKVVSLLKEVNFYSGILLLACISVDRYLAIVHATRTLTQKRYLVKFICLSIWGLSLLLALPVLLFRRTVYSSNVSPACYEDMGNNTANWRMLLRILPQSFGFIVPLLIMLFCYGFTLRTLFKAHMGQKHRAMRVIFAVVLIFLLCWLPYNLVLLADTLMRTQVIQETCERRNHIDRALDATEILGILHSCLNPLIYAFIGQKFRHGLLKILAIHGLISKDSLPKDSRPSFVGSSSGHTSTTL

[9] = replicate 1, read-out: CCR1 activity, ctrl+ = 100
[10] = replicate 2, read-out: CCR1 activity, ctrl+ = 100
[11] = replicate 3, read-out: CCR1 activity, ctrl+ = 100
[12] = replicate 1, read-out: CXCR5 activity, ctrl+ = 100
[13] = replicate 2, read-out: CXCR5 activity, ctrl+ = 100
[14] = replicate 3, read-out: CXCR5 activity, ctrl+ = 100
[15] = Figure S2a, replicate 1, read-out: CXCR4 activity, ctrl+ = 100
[16] = Figure S2a, replicate 2, read-out: CXCR4 activity, ctrl+ = 100
[17] = Figure S2a, replicate 3, read-out: CXCR4 activity, ctrl+ = 100
[18] = replicate 1, read-out: CCR5 activity, ctrl+ = 100
[19] = replicate 2, read-out: CCR5 activity, ctrl+ = 100
[20] = replicate 3, read-out: CCR5 activity, ctrl+ = 100
[21] = replicate 1, read-out: CXCR3B activity, ctrl+ = 100
[22] = replicate 2, read-out: CXCR3B activity, ctrl+ = 100
[23] = replicate 3, read-out: CXCR3B activity, ctrl+ = 100
[24] = replicate 1, read-out: CXCR2 activity, ctrl+ = 100
[25] = replicate 2, read-out: CXCR2 activity, ctrl+ = 100
[26] = replicate 3, read-out: CXCR2 activity, ctrl+ = 100

T5 sequence (P51681 whole entry): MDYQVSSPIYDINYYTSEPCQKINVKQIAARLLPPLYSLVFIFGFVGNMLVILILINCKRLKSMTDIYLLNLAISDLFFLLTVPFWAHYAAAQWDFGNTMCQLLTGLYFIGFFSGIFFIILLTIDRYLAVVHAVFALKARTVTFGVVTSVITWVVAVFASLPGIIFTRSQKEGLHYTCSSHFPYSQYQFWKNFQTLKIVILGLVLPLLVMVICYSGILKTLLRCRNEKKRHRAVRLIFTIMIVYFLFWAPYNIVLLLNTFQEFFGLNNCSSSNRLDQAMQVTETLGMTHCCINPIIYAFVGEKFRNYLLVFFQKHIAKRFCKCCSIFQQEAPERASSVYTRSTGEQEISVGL
T4 sequence (P61073 whole entry): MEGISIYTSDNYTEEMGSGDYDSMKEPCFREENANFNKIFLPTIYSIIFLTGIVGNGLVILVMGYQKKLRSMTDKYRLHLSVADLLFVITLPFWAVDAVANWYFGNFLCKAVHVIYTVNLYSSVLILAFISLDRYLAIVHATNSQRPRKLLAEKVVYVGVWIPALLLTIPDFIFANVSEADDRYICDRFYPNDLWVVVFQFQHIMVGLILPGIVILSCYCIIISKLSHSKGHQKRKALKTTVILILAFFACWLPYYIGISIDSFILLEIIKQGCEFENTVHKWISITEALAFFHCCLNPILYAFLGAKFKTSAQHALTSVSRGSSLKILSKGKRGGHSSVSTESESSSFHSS
CCR8, sequence (P51685 whole entry): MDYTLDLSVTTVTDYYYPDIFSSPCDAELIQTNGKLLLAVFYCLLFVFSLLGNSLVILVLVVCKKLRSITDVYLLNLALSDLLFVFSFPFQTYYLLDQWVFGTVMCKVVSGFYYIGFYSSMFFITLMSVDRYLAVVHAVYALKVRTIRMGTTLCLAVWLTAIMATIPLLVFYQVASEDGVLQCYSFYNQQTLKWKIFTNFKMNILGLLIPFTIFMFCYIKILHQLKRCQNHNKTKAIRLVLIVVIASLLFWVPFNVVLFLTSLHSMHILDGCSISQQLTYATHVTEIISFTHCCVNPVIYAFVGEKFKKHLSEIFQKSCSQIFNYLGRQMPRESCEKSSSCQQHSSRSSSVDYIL

Structure (SMILES)	activation [1, 9]	activation [1, 10]	activation [1, 11]	activation ([2]; replicate 1)	activation ([2]; replicate 2)	activation ([2]; replicate 3)	activation [3, 12]	activation [3, 13]	activation [3, 14]	activation ([4]; replicate 1)	activation ([4]; replicate 2)	activation ([4]; replicate 3)	activation [6, 18]	activation [6, 19]	activation [6, 20]	activation [7, 21]	activation [7, 22]	activation [7, 23]	activation [8, 24]	activation [8, 25]	also measured
CC(C)C[C@H](NC(=O)[C@H](Cc1ccccc1)NC(=O)CNC(=O)CNC(=O)[C@@H](N)Cc1ccc(O)cc1)C(=O)N[C@@H](CCCN=C(N)N)C(=O)N[C@@H](CCCN=C(N)N)C(=O)N[C@@H](CCC(N)=O)C(=O)N[C@@H](Cc1ccccc1)C(=O)N[C@@H](CCCCN)C(=O)N[C@H](C(=O)N[C@H](C(=O)N[C@H](C(=O)O)[C@@H](C)O)C(C)C)C(C)C [Dynorphin B]	-23.7%	-13.7%	27.5%	-5.6%	-0.628%	0.166%	-2.46%	-6.11%	11.3%	2.83%	-25.3%	18.8%	0.97%	0.0962%	1.82%	-3.84%	-0.0101%	0.918%	0.415%	-10%	activation [5, 15]: -12.2%; activation [5, 16]: 7.15%; activation [5, 17]: -6.95%; activation [8, 26]: 5.58%
CSCC[C@H](NC(=O)[C@H](Cc1ccccc1)NC(=O)CNC(=O)CNC(=O)[C@@H](N)Cc1ccc(O)cc1)C(=O)N[C@@H](CCCNC(=N)N)C(=O)N[C@@H](CCCNC(=N)N)C(=O)N[C@H](C(=O)NCC(=O)N[C@@H](CCCNC(=N)N)C(=O)N1CCC[C@H]1C(=O)N[C@@H](CCC(=O)O)C(=O)N[C@@H](Cc1c[nH]c2ccccc12)C(=O)N[C@@H](Cc1c[nH]c2ccccc12)C(=O)N[C@@H](CCSC)C(=O)N[C@@H](CC(=O)O)C(=O)N[C@@H](Cc1ccc(O)cc1)C(=O)N[C@@H](CCC(N)=O)C(=O)N[C@@H](CCCCN)C(=O)N[C@@H](CCCNC(=N)N)C(=O)N[C@@H](Cc1ccc(O)cc1)C(=O)NCC(=O)O)C(C)C [BAM22]	-7.62%	9.7%	10.5%	-4.56%	-1.96%	5.51%	-1.51%	-4.48%	-1.8%	-18.7%	-21.3%	-4.1%	0.229%	-1.32%	-1.42%	-1.43%	0.626%	5.18%	-3.38%	-4.91%	activation ([5]; read-out: CXCR4 activity, ctrl+ = 100, Figure S2a, replicate 1): 22.9%; activation ([5]; read-out: CXCR4 activity, ctrl+ = 100, Figure S2a, replicate 2): 27.7%; activation ([5]; read-out: CXCR4 activity, ctrl+ = 100, Figure S2a, replicate 3): -6.34%; activation [8, 26]: -1.55%
C[C@H](NC(=O)CNC(=O)[C@@H](NC(=O)[C@H](Cc1ccccc1)NC(=O)CNC(=O)CNC(=O)[C@@H](N)Cc1ccccc1)[C@@H](C)O)C(=O)N[C@@H](CCCNC(=N)N)C(=O)N[C@@H](CCCCN)C(=O)N[C@@H](CO)C(=O)N[C@@H](C)C(=O)N[C@@H](CCCNC(=N)N)C(=O)N[C@@H](CCCCN)C(N)=O [Nociceptin 1-13]	-0.621%	1.74%	-35.9%	-3.36%	-5.01%	1.05%	-3.96%	-2.66%	-1.89%	-35.6%	-2.22%	6.11%	-0.291%	-0.592%	0.907%	-2.86%	1.14%	7.41%	-8.55%	-9.95%	activation [5, 15]: 20.2%; activation [5, 16]: -3.76%; activation [5, 17]: 28.2%; activation [8, 26]: -4.53%
